NC(=NCCCCCCN=C(N)/N=C(\N)Nc1ccc(Cl)cc1)/N=C(\N)Nc1ccc(Cl)cc1
solubility (mole fraction)
Conditions | 283.15 K | 288.15 K | 293.15 K | 298.15 K | 303.15 K | 308.15 K | 313.15 K | 318.15 K | 323.15 K
in 1,4-dioxane | – | 0.000569 | 0.000674 | 0.000764 | 0.000888 | 0.00102 | 0.00117 | 0.00133 | 0.00153
in DMF | 0.00795 | 0.00941 | 0.0111 | 0.0131 | 0.0153 | 0.018 | 0.0206 | 0.0241 | 0.0277
in ethanol | 0.000405 | 0.000471 | 0.000539 | 0.000613 | 0.000706 | 0.000803 | 0.000914 | 0.00103 | 0.00117
in methanol | 0.000656 | 0.000751 | 0.000846 | 0.000967 | 0.00108 | 0.00123 | 0.00137 | 0.00154 | 0.00173
in water | 1.45e-06 | 2.03e-06 | 2.79e-06 | 3.84e-06 | 5.21e-06 | 7.06e-06 | 9.32e-06 | 1.23e-05 | 1.62e-05
